How the values were obtained:
Male Sprague Dawley rats [1] = experiment: Thermal hyperalgesia (Hargreaves paw-withdrawal latency) in rats with chronic s.c. morphine or saline infusion; assay type: in vivo, rat; conditions: for effect on hindpaw withdrawal latencies when given alone: daily i.th 3 μM/day, saline-infused rats, vs vehicle group; for development of morphine-induced hyperalgesia: daily i.th for 6 days with s.c. morphine infusion, Myr 0.3, FB1 1, D609 1, DMS 0.3, SK-1 0.3 μM/day; for effect on paw-withdrawal latencies: drug alone vs Veh-Sal; for effect on paw-withdrawal latencies / Paw-Withdrawal Latency: day 6; for Paw-Withdrawal Latency: drug given alone i.th daily over 6 days to saline-infused rats, mean ± SEM
Method: (§1) Osmotic pump implantation. Rats, under light isoflurane anesthesia, were subcutaneously implanted (in the interscapular region) with osmotic pumps (Alzet 2001; Alza, Mountain View Calif.), to deliver saline at 1 μl/h or morphine at 75 μg μl^−1h^−1 over 7 days as described (Vera-Portocarrero et al., 2006). Minipumps were filled according to manufacturer's specifications. The use of the osmotic pump ensures a continuous delivery of morphine avoiding intermittent periods of withdrawal. The integrity of the pump delivery system was reexamined at the end of each experiment when the spinal cords were harvested.
(§2) Drug administration. The test substances fumonisin B1 (FB 1, Sigma-Aldrich, St. Louis, Mo.), myriocin (Myr Sigma-Aldrich, St. Louis, Mo.), D609 (Tricyclodecan-9-ylxanthogenate, K; Calbiochem, San Diego, Calif.), DMS (N,N-Dimethylsphingosine, Caymen Chemical, Ann Arbor, Mich.), SK-I 2-(p-hydroxyanilino)-4-(p-chlorophenyl) thiazole, Calbiochem, San Diego, Calif.) or their vehicle (0.5% in DMSO) were delivered by intrathecal (i.th) injection in rats chronically implanted with i.th cannulas as described previously (Storkson et al., 1996). Test substances were injected i.th once a day for 6 days in a total volume of 10 μl followed by a 10 μl flush with sterile physiological saline.
Behavioral tests. Thermal hyperalgesia. The method of Hargreaves and colleagues was used to assess changes in baseline nociceptive responses to a thermal nociceptive stimulus (Hargreaves et al., 1988). Animals were allowed to acclimate within a Plexiglas enclosure on a clear glass plate in a quiet testing room. A radiant heat source is focused onto the plantar aspect of the hindpaw with baseline latencies of 18-20 sec. and a maximal cutoff time of 20 sec to prevent tissue damage. The paw-withdrawal latency is determined by a motion detector activated by the paw withdrawal, stopping a timer. Foot withdrawal latencies were taken on the day before implantation of the minipumps (baseline) and subsequently on days 1, 3 and 6 of the experimental period to determine whether morphine-tolerant animals develop increased sensitivity to thermal stimulation. A significant (P<0.05) reduction in paw-withdrawal latency over time and before implantation of the osmotic minipump is characterized as thermal hyperalgesia. […]

Male Sprague Dawley rats [2] = experiment: Antinociceptive tolerance (tail flick after acute morphine) in rats with chronic s.c. morphine or saline infusion; assay type: in vivo, rat; conditions: for effect on tail flick latencies when given alone: daily i.th 3 μM/day, saline-infused rats, vs vehicle group; for development of morphine antinociceptive tolerance: daily i.th for 6 days with s.c. morphine infusion, Myr 0.3, FB1 1, D609 1, DMS 0.3, SK-1 0.3 μM/day; for effect on antinociceptive responses to acute morphine: drug alone vs Veh-Sal; for effect on antinociceptive responses to acute morphine / % MPE (Tail-flick): day 6; for % MPE (Tail-flick): drug given alone i.th daily over 6 days to saline-infused rats, response to acute morphine, mean ± SEM
Method: as §1, §2
After the Hargreave's test, the development of antinociceptive tolerance was determined in all animals as follows. Acute nociception. The tail flick test which measures, withdrawal latencies of the tail from a noxious radiant heat source was used to measure thermal nociceptive sensitivity with baseline latencies of 4-5 sec and it cut-off time of 10 sec to prevent tissue injury (D'Amour, 1941). […]. Test substances or vehicle were given on day 0-6 after completion of the behavioral tests. At the required time points, after the behavioral tests, spinal cord tissues from the lumbar, enlargement segment of the spinal cord (L4-L6) and dorsal horn tissues were removed and tissues processed for immunohistochemical, Western blot and biochemical analysis. All experiments were conducted with the experimenters blinded to treatment conditions. […]

[3] = molecular target: S1P1 subtype, human receptor (Homo sapiens, UniProt P21453); conditions: GTP-γS binding assay; cited from earlier work
Sequence of S1P1 subtype, human receptor (P21453 whole entry): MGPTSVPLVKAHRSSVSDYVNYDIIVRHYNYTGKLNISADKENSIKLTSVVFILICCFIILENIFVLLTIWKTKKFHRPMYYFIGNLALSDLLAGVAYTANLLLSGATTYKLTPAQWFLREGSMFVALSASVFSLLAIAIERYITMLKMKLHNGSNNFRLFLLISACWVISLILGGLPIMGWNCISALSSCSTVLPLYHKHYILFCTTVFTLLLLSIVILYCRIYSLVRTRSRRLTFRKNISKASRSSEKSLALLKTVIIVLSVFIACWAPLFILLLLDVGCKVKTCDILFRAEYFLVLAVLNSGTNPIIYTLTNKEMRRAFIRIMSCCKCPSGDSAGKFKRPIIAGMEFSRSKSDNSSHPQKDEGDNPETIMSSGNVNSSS

rats [4] = experiment: Ceramide-induced thermal hyperalgesia (intraplantar); assay type: in vivo, rat
rats [5] = experiment: Antinociceptive response to acute morphine (tail flick latency); assay type: in vivo, rat; conditions: W146 1 pM i.th 15 min before morphine 1, 3 or 6 mg/kg i.p; tail flick 30 min after morphine
Method: Acute nociception. The tail flick test, which measures withdrawal latencies of the tail from a noxious radiant heat source, was used to measure thermal nociceptive sensitivity with baseline latencies of 2-3 sec and a cut-off time of 10 sec to prevent tissue injury (D'Amour, J Pharmacol Exp Ther 72, 74-79 (1941)). […] Test substances or vehicle were given on day 0 through 6 after completion of the behavioral tests.
(§3) Tail flick latency (s) was tested before and 30 min after morphine (FIG. 26).

[6] = system: other known S1P receptor subtypes; conditions: at doses as high as 10-20 μM; cited from earlier work
rats [7] = experiment: Carrageenan-induced thermal hyperalgesia; assay type: in vivo, rat
Male Sprague Dawley rats [8] = experiment: Paclitaxel-induced neuropathic pain (mechano-allodynia, mechano-hyperalgesia); assay type: in vivo, rat
Method: Paclitaxel-Induced: Paclitaxcel-induced pain was studied by means of the well-characterized rat model developed by Bennett in which repeated intraperitoneal (i.p) injections of low doses of paclitaxel are administered to induce neuropathic pain (methano-allodynia and mechano-hyperalgesia) with little systemic toxicity or motor impairment (Polomano et al., Pain 94, 293-304 (2001)). The behavioral responses last for several weeks to months, thus modeling painful neuropathies in patients. Paclitaxel (Parentapharm. Yardley, Pa.) or its vehicle (Cremophor EL and 95% dehydrated ethanol in 1:1 ratio) was injected i.p in rats on four alternate days (day 0, 2, 4 and 6 with a final cumulative dose of 4 mg/kg). MnTE-2-PyP^5+, W146 (source), W140 (source) or their vehicle were delivered by intrathecal (i.th) injection (total volume of 10 μl followed by a 10 μl flush with sterile physiological saline) in rats chronically implanted with i.th cannulas using the L5/L6 lumbar approach, as described previously and Commonly used for drug delivery (Ramos et al. Neuroscience 169, 1888-1900 (2010); Schoeniger-Skinner, Brain Behav Immun 21, 660-667 (2007); Doyle, et al. Neurosci Lett (2010)). Drugs were injected 30 min before paclitaxel or its vehicle from day (D) 0 and then daily up to D15. In another set of experiments, Fingolimod (Fingolimod, Cayman Chemicals, Ann Arbor, Mich.) or its vehicle (1.2% ethanol in saline) were given by intraperitoneal injection (i.p., 0.2 ml) from D0 to D15; behavioral testing was carried out on D0 and at baseline and subsequently on D12, D16 and D22.
Behavioral testing: Baseline values were taken from all rats on day 0 Baseline. Drugs or vehicles under investigation were then given, followed 30 min later by a chemotherapeutic or vehicle. Behavioral testing was subsequently carried out on D12, D16 and D22.
Mechano-Allodynia and mechano-hyperalgesia: Mechanical withdrawal thresholds were assessed with an automated electronic version of the von Frey test (dynamic plantar aesthesiometer, model 37450; Ugo Basile, Milan, Italy). Each rat was placed in a Plexiglas chamber (28×40×35-cm, wire mesh floor) and allowed to acclimate for fifteen minutes. […] The pressure evoking a clear voluntary hind-paw withdrawal response (normally 40-45 g) was recorded automatically and taken as the mechanical threshold index. Mechanical threshold was assessed three times at each time point to yield a mean value, which is reported as mean absolute threshold (grams, g). […] Mechanical-hyperalgesia was assessed by the Randall and Sellitto paw pressure test 6 using an Ugo-Basile analgesiometer, which applies a linearly increasing mechanical force to the dorsum of the rat's hind paw. […]

rats [9] = conditions: rat, in vivo
Method: as §3

murine S1P1 subtype = murine S1P1 subtype (Mus musculus, UniProt O08530); conditions: cited from earlier work
Sequence of murine S1P1 subtype (O08530 whole entry): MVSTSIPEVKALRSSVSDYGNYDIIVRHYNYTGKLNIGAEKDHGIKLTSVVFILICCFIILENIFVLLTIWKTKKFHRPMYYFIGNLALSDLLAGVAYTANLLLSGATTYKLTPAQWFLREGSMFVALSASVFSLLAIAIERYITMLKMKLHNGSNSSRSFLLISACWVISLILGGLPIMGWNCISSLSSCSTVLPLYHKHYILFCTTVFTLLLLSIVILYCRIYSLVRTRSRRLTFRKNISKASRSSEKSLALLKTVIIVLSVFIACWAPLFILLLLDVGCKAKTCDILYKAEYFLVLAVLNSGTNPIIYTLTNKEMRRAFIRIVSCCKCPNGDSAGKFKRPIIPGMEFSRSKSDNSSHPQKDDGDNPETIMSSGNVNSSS

[10] = S1P-induced thermal hyperalgesia (intraplantar); assay type: in vivo; conditions: intraplantar W146 15 minutes before intraplantar S1P
S1P2 = S1P2 (Homo sapiens, UniProt O95136); conditions: cited from earlier work
Sequence of S1P2 (O95136 whole entry, species assumed): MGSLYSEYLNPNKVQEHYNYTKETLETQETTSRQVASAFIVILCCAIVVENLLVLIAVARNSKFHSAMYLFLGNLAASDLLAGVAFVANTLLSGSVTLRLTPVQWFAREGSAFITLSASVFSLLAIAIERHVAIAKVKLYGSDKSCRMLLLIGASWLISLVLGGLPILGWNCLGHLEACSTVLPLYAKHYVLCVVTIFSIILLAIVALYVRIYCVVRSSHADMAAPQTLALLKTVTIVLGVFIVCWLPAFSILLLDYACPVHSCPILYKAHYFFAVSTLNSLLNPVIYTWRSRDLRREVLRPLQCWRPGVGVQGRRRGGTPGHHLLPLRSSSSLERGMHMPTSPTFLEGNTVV

S1P5 = S1P5 (Homo sapiens, UniProt Q9H228); conditions: relative to S1P1; cited from earlier work
Sequence of S1P5 (Q9H228 whole entry, species assumed): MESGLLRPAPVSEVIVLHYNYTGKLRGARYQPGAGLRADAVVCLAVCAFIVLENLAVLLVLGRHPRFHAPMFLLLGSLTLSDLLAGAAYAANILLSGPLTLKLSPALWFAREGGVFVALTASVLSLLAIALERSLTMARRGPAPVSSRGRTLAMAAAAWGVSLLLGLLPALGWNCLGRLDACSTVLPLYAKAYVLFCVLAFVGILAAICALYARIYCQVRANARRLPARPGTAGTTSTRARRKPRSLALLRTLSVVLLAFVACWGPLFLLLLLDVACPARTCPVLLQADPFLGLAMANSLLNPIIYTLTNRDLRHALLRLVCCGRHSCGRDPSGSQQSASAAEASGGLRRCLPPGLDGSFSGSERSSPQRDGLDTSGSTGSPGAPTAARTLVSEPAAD

S1P = S1P levels in dorsal horn tissue by ELISA; assay type: in vivo, rat
[11] = Carrageenan-induced inflammation; assay type: in vivo; conditions: intraplantar injection 15 min before carrageenan
Male Sprague Dawley rats [12] = experiment: Antinociceptive tolerance (tail flick after acute morphine) in rats with chronic s.c. morphine or saline infusion; assay type: in vivo, rat; conditions: acute i.th injection; n=4, not shown
[13] = daily intrathecal, W146 0.3-3 μM/day, W140 3 μM/day
[14] = 3 μM/day i.th co-administered with morphine infusion

| SMILES | S1P (pg/mg tissue) (S1P; rat, in vivo) | morphine-induced increased production of S1P in dorsal horn tissues (S1P; rat, in vivo, sc) | development of morphine-induced hyperalgesia (Male Sprague Dawley rats [1]) | effect on paw-withdrawal latencies (Male Sprague Dawley rats [1]) | Paw-Withdrawal Latency (Male Sprague Dawley rats [1]) [s] | development of morphine antinociceptive tolerance (Male Sprague Dawley rats [2]) | effect on antinociceptive responses to acute morphine (Male Sprague Dawley rats [2]) | % MPE (Tail-flick) (Male Sprague Dawley rats [2]) [%] | further results |
| --- | --- | --- | --- | --- | --- | --- | --- | --- | --- |
| CCCCCCc1cccc(NC(=O)[C@@H](N)CCP(=O)(O)O)c1 [W140] |  |  |  |  |  |  |  |  | effect on hindpaw withdrawal latencies when given alone (Male Sprague Dawley rats [1]): had no effect; effect on tail flick latencies when given alone (Male Sprague Dawley rats [2]): had no effect |
| CCCCCCc1cccc(NC(=O)[C@H](N)CCP(=O)(O)O)c1 [W146] |  |  |  |  |  |  |  |  | Ki [3]: ~80 nM; effect when given alone (no ceramide) (rats [4]): had no effect; ceramide-induced thermal hyperalgesia (rats [4]; LT1002 242 μg, LT1017 286 μg, W146 0.3, 0.6 or 1.2 μg, W140 1.2 μg): inhibited; effect on dose-response to acute morphine (rats [5]): did not modify; antagonistic or agonistic activity against other S1P receptor subtypes [6]: No-antagonistic (or agonistic) activity; carrageenan-induced hyperalgesia (rats [7]; W146, FIG. 14): blocks; baseline withdrawal thresholds when given alone (Male Sprague Dawley rats [8]; W146 3 μM/day, highest dose tested): did not affect; development of paclitaxel-induced mechano-allodynia (Male Sprague Dawley rats [8]; [13]): attenuated in a dose-dependent manner; development of paclitaxel-induced mechano-hyperalgesia (Male Sprague Dawley rats [8]; [13]): attenuated in a dose-dependent manner; reversal of Paclitaxel-induced neuropathic pain (Male Sprague Dawley rats [8]; given i.p on day 16, behavioral testing 60 minutes later): reverses; observable side effects (rats [9]): No observable side effects; potency at the murine S1P1 subtype relative to human (murine S1P1 subtype): equipotency; block of development of thermal hyperalgesia (Male Sprague Dawley rats [1]; [14]): > 90%; effect on hindpaw withdrawal latencies when given alone (Male Sprague Dawley rats [1]): had no effect; development of S1P-induced thermal hyperalgesia [10]: blocked; block of development of antinociceptive tolerance (Male Sprague Dawley rats [2]; [14]): > 90%; effect on tail flick latencies when given alone (Male Sprague Dawley rats [2]): had no effect |
| CCCCCCCCc1ccc(CC[C@](N)(CO)COP(=O)(O)O)cc1 [Fingolimod-P] |  |  |  |  |  |  |  |  | binding affinity for S1P2 (S1P2): no reported affinity; binding affinity for S1P5 (S1P5): slightly lower affinity |
| CCCCCCC(=O)CCCCCC/C=C/C[C@@H](O)[C@H](O)[C@@](N)(CO)C(=O)O [Myr, myriocin] | 1.2 ± 0.05 | blocked | blocked | did not affect | 19 ± 0.5 | blocked | did not affect | 91 ± 3.0 | effect on S1P levels in spinal cord tissues (S1P; drug alone vs Veh-Sal, day 6): did not affect |
| CCCC[C@@H](C)[C@@H](OC(=O)C[C@@H](CC(=O)O)C(=O)O)[C@H](C[C@@H](C)C[C@H](O)CCCC[C@@H](O)C[C@H](O)[C@H](C)N)OC(=O)C[C@@H](CC(=O)O)C(=O)O [FB1, fumonisin B1] | 1.4 ± 0.06 | blocked | blocked | did not affect | 19 ± 0.8 | blocked | did not affect | 92 ± 3.2 | effect on S1P levels in spinal cord tissues (S1P; rat, in vivo): did not affect |
| S=C([S-])OC1CC2CC1C1CCCC21.[K+] (stereo not drawn) [D609, Tricyclodecan-9-ylxanthogenate, K] | 1.5 ± 0.06 | blocked | blocked | did not affect | 19 ± 0.7 | blocked | did not affect | 92 ± 3.0 | effect on S1P levels in spinal cord tissues (S1P; rat, in vivo): did not affect |
| Oc1ccc(Nc2nc(-c3ccc(Cl)cc3)cs2)cc1 [SK-1, 2-(p-hydroxyanilino)-4-(p-chlorophenyl) thiazole] | 1.3 ± 0.06 |  | blocked | did not affect | 19 ± 0.7 | blocked | did not affect | 99 ± 0.9 | carrageenan-induced inflammation [11]: blocks; carrageenan-induced thermal hyperalgesia (rats [7]; intraplantar SK-1 250, 500 or 1000 ng): attenuated in a dose-dependent manner; morphine-induced increased production of S1P in dorsal horn tissues (S1P; daily i.th for 6 days with s.c. morphine infusion, Myr 0.3, FB1 1, D609 1, DMS 0.3, SK-1 0.3 μM/day): blocked; effect on S1P levels in spinal cord tissues (S1P; drug alone vs Veh-Sal, day 6): did not affect; reversal of tolerance once established (Male Sprague Dawley rats [12]): did not reverse |

— US8945549B2, “Methods of treating antinociceptive tolerance” (Saint Louis University, priority 2010, dated 2015)
